Assay results reported in US10328161B2, “Luciferin derivatives from bicyclic reactants and aminothiol derivatives and methods of use thereof” (The Regents of the University of California, priority 2012, dated 2019).
Each block holds one compound with its values, some of them ahead of it.

Experiments:
caspase 8 = target: T1, caspase 8 (Homo sapiens, UniProt Q14790); experiment: Selectivity assay for IETDC: caspase 8; type: biochemical
T1 construct: purchased Sigma-Aldrich
Protocol: (§1) Millipore water was used to prepare all aqueous solutions. Luciferase (100 μg/mL) in 50 mM Tris buffer, pH 7.4, with 10 mM MgCl2, 0.1 mM ZnCl2, and 2 mM ATP was added to selectivity assay samples (described below) to determine the relative amount of luciferin formed during incubation. Measurements for bioluminescent assays were performed at 37° C. and were recorded using a Molecular Devices SpectraMax M2 plate reader (Sunnyvale, Calif.). Samples for bioluminescent measurements were placed in white, opaque 96-well plates, which were purchased from Corning Inc. (Corning, N.Y.). ATP was purchased from MP Biomedicals (Solon, Ohio) or Sigma-Aldrich (St. Louis, Mo.), and luciferase was purchased from Promega (Madison, Wis.). Caspase enzymes were purchased from Sigma-Aldrich (St. Louis, Mo.), and caspase inhibitors were purchased from MP Biomedicals (Solon, Ohio).
For determination of caspase selectivity, various caspases (3 and 8:1 unit, 9:0.001 unit) were administered to IETDC or D-cysteine (5 μM) in Tris buffer (50 mM, pH 7.4). […] After each enzyme was incubated with IETDC or D-cysteine for 60 min, 100 μL of a Tris buffer (50 mM, pH 7.4) containing luciferase (100 μg/mL), 10 mM MgCl2, 0.1 mM ZnCl2, and 2 mM ATP was added to 100 μL of the IETDC or D-cysteine solutions and the bioluminescent signal was detected.

PC3M-luc cells [1] = experiment: Lifetime of HCBT and D-cysteine in PC3M-luc cells; type: cell-based; conditions: 100 μM, 30 min incubation, wash, complementary reagent after 0-60 min
Protocol: (§2) A Xenogen IVIS Spectrum instrument (Caliper Life Sciences, Hopkinton, Mass.) was used for bioluminescent imaging in all cellular experiments. PC3M-luc cells (kindly provided by Chris Contag, Stanford University) were cultured in Dulbecco's Modified Eagle Medium (DMEM) containing 10% Fetal Bovine Serum (FBS). Prior to assaying, cells were passed and plated (1.3-1.5×10^4 cells/well) in black 96-well plates with clear bottoms (Becton Dickinson and Company, Franklin Lakes, N.J.). Once the cells were ca. 95% confluent, reagents were added for bioluminescent assays.
The medium was removed from PC3M-luc cells prepared as described above, and HCBT (100 μM, 1% DMSO) or D-cysteine (100 μM, 1% PBS) in DMEM (-FBS) was added. After a 30 min incubation, the HCBT or D-cysteine was removed, the cells were washed with DMEM (-FBS), and fresh DMEM was added. After 0, 15, 30, 45, or 60 min, the second component of luciferin, D-cysteine (100 μM final concentration, 1% PBS) or HCBT (100 μM final concentration, 1% DMSO) in HBSS (25 mM glucose) was added, and the plate was immediately imaged for 2 h to determine the peak bioluminescent signal produced.

PC3M-luc cells [2] = experiment: Comparison of in situ luciferin formation and luciferin in PC3M-luc cells (intact and lysed); type: cell-based; conditions: inferred from intact versus lysed PC3M-luc cells
Protocol: as §2
PC3M-luc cells prepared as described above were washed with HBSS (25 mM glucose) prior to addition of HCBT and D-cysteine (0-500 μM, 1% DMSO) or luciferin (0-500 μM, 1% DMSO) in HBSS (25 mM glucose). For experiments with lysed cells, 100 μL Glo lysis buffer (Promega, Madison, Wis.) was incubated with the PC3M-luc cells for 5 min prior to addition of HCBT and D-cysteine or luciferin. The plates were immediately imaged for 2 h to determine the peak bioluminescent signal produced.

[3] = Exogenous H2O2 experiments in mice; type: in vivo; conditions: for Turn-on: PCL-1 0.5 μmol
Excerpt: (§3) A Xenogen IVIS Spectrum instrument (Caliper Life Sciences, Hopkinton, Mass.) was used for bioluminescent imaging in all animal experiments. Mice were anesthetized prior to injection and during imaging via inhalation of isoflurane. Phosphate Buffered Saline (PBS) was purchased from Thermo Fisher Scientific (Waltham, Mass.), and saline (0.9%) was made from sodium chloride and Millipore water. Isoflurane was purchased from Phoenix Pharmaceuticals, Inc. (St. Joseph, Mo.), and pharmaceutical grade DMSO was purchased from Sigma-Aldrich (St. Louis, Mo.). Medical grade oxygen was purchased from Praxair (Danbury, Conn.).
(§4) FVB-luc^+ (FVB-Tg(CAG-luc,-GFP)L2G85Chco/J) mice were bred at UC Berkeley, and were single or group-housed on a 12:12 light-dark cycle at 22° C. with free access to food and water. All studies were approved and performed according to the guidelines of the Animal Care and Use Committee of the University of California, Berkeley.
Unshaven, male FVB-luc^+ mice were anesthetized with isoflurane and injected IP with a mixture of PCL-2 and D-cysteine (0.05 μmol each, in 50 μL of 1:1 DMSO:PBS), followed immediately by an IP injection of H2O2 (0-4.5 μmol in 100 μL of PBS). Control mice were injected IP with a mixture of HCBT and D-cysteine (0.01 μmol each, in 50 μL of 1:1 DMSO:PBS) immediately prior to H2O2 (4.5 μmol in 100 μL of PBS). Following injections, mice were imaged with an IVIS Spectrum.

[4] = Selectivity assays for dual H2O2 and caspase 8 detection in vitro; type: biochemical; conditions: for effect of a single inhibitor on the dual-analyte signal: catalase 1 unit or Q-VD-OPh 10 μM, with H2O2 and caspase 8; for effect of both inhibitors together on the dual-analyte signal: catalase 1 unit plus Q-VD-OPh 10 μM combined; for interference with in situ luciferin formation from HCBT and D-cysteine: catalase 1 unit, Q-VD-OPh 10 μM
Protocol: as §1
To quench H2O2 immediately, catalase (1 unit) was subsequently added to some of the solutions. After 60 min, catalase (1 unit) was added to all other solutions containing H2O2 to quench any remaining H2O2. Subsequently, caspase 8 (1 unit) was added to the solutions in the presence or absence of the caspase inhibitor, Q-VD-OPh (10 μM), 15 min prior to IETDC (10 μM) or D-cysteine (5 μM) addition. Following IETDC or D-cysteine addition, the solutions were incubated for 60 min. Additionally, dithiothreitol (1 mM) was added to all solutions at the time of caspase 8 addition to maintain the reduced state of the D-cysteine. To monitor luciferin formation, 100 μL of a Tris buffer (50 mM, pH 7.4) containing luciferase (100 μg/mL), 10 mM MgCl2, 0.1 mM ZnCl2, and 2 mM ATP was added to 100 μL of the PCL-2/IETDC or HCBT/D-cysteine solutions and the bioluminescent signal was detected.

FVB-luc^+ mice = experiment: Control: effect of inhibitors and antioxidants on HCBT and D-cysteine luciferin signal in mice; type: in vivo
Protocol: (a) Total photon fluxes, 0-15 min post-injection, for mice (n=3) injected with apocynin (IP, 10 mg/kg in 20 μL DMSO) or vehicle (IP, 20 μL DMSO) two min prior to injections of a mixture of HCBT and D-cysteine (IP, 0.01 μmol each, in 50 μL of 1:1 DMSO:PBS). (b) Total photon fluxes, 15-45 min post-injection, for mice (n=3) injected with z-VD(OMe)-OPh (IP, 1 μmol in 20 μL DMSO) or vehicle (IP, 20 μL DMSO) 30 min prior to injections of a mixture of HCBT and D-cysteine (IP, 0.01 μmol each, in 50 μL of 1:1 DMSO:PBS). Error bars are ±SEM.
FIG. 18 depicts bioluminescent signals from HCBT and D-cysteine with ascorbic acid in FVB-luc^+ mice. Total photon fluxes, 30-60 min post-injection, for mice (n=3-4) injected with ascorbic acid (IP, 200 mg/kg in 30 μL saline) or vehicle (IP, 30 μL saline) 4.5 h prior to injections of a mixture of HCBT and D-cysteine (IP, 0.01 μmol each, in 50 μL of 1:1 DMSO:PBS). Error bars are ±SEM.

[5] = Lipopolysaccharide inflammation model, H2O2 detection with PCL-2; type: in vivo, mice; conditions: apocynin 10 mg/kg IP, LPS-treated mice
Excerpt: as §3, §4
Unshaven, female FVB-luc^+ mice, aged 2-5 months, were anesthetized with isoflurane and injected IP with lipopolysaccharides (LPS, 3 mg/kg in 50 μL of saline) or saline (50 μL). For studies with PCL-2 alone, mice were injected IP with either apocynin (10 mg/kg in 20 μL of DMSO) or DMSO (20 μL) 6 h after LPS injection. […]

H2O2 and caspase 8 = experiment: Lipopolysaccharide inflammation model, dual detection with PCL-2 and IETDC; type: in vivo; conditions: ascorbic acid 200 mg/kg and z-VD-OPh 1 μmol used together, LPS-treated mice
Excerpt: as §3, §4
For studies with PCL-2 and IETDC, mice were injected IP with ascorbic acid (200 mg/kg in 30 μL of saline) or the saline vehicle (30 μL) 30 min prior to IP injection of LPS (3 mg/kg in 50 μL of saline) or saline (50 μL). Two hours after injection of LPS, z-VD(OMe)-OPh (1 μmol in 20 μL of DMSO) or the vehicle, DMSO (20 μL), was injected IP. […]

[6] = Selectivity assay for PCL-2: response to H2O2; type: biochemical; conditions: H2O2 100 μM and catalase 0.4 mg/mL
Protocol: as §1
Various ROS (100 μM) were administered to PCL-2 or HCBT (5 μM) in Tris buffer (50 mM, pH 7.4) with or without 10 mM MgCl2 and 0.1 mM ZnCl2. […] After an additional 15 min incubation, 100 μL of a Tris buffer (50 mM, pH 7.4) containing luciferase (100 μg/mL), 10 mM MgCl2, 0.1 mM ZnCl2, and 2 mM ATP was added to 100 μL of the PCL-2 or HCBT solutions and the bioluminescent signal was detected.

T1 sequence (Q14790 217-374 limits assumed, species assumed): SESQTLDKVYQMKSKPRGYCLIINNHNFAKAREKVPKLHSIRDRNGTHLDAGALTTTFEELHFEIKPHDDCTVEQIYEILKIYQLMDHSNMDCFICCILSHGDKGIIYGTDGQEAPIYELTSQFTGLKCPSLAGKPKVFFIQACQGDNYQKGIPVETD
T1 sequence (Q14790 385-479 limits assumed, species assumed): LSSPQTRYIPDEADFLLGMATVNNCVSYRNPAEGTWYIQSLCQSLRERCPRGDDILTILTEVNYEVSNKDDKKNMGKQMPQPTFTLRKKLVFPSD

effect of caspase inhibitor on the response of IETDC to caspase 8 (caspase 8; Q-VD-OPh 10 μM): complete attenuation
effect of a single inhibitor on the dual-analyte signal [4]: attenuated the increase in signal
effect of both inhibitors together on the dual-analyte signal [4]: complete attenuation of signal
Compound: CC(C)[C@H](NC(=O)c1ccc2ccccc2n1)C(=O)N[C@@H](CC(=O)O)C(=O)COc1c(F)cccc1F [Q-VD-OPh]
interference with in situ luciferin formation from HCBT and D-cysteine [4]: did not interfere with in situ luciferin formation

effect of a single inhibitor on the dual-analyte signal [4]: attenuated the increase in signal
effect of both inhibitors together on the dual-analyte signal [4]: complete attenuation of signal
effect of catalase on the H2O2 turn-on signal of PCL-2 [6]: attenuated
Compound: catalase
interference with in situ luciferin formation from HCBT and D-cysteine [4]: did not interfere with in situ luciferin formation

Continued, compound first:

Compound: N[C@H](CS)C(=O)O [D-cysteine]
change in bioluminescent signal on incubation with caspase enzymes (caspase 8; D-cysteine 5 μM with HCBT, caspases 8, 3, 9): no change in bioluminescent signal
cellular lifetime: signal as time between removal and addition of the complementary reagent increases (PC3M-luc cells [1]): still fully available for reaction with HCBT
permeability across the cell membrane compared to luciferin (PC3M-luc cells [2]): increased permeability

Compound: O=C(O)[C@H]1CSC(c2nc3ccc(OCc4ccc(B(O)O)cc4)cc3s2)=N1 [PCL-1]
Turn-on ([3]; H2O2 0.037 μmol): 1.5-fold
Turn-on ([3]; H2O2 0.15 μmol): 2.0-fold
Turn-on ([3]; H2O2 0.6 μmol): 2.7-fold
detection limit for H2O2 in vivo ([3]; IP, FVB-luc^+ mice, optimized imaging conditions for each probe): 0.037 µmol

Compound: COc1cc(C(C)=O)ccc1O [apocynin]
effect on the luciferin signal from HCBT and D-cysteine in vivo (FVB-luc^+ mice; apocynin 10 mg/kg or z-VD-OPh 1 μmol IP, HCBT and D-cysteine 0.01 μmol each): do not alter the luciferin signal
reduction in PCL-2 signal upon treatment [5]: 55%

Compound: O=C1O[C@H]([C@@H](O)CO)C(O)=C1O [ascorbic acid]
effect on the bioluminescent signal from HCBT and D-cysteine (FVB-luc^+ mice; ascorbic acid 200 mg/kg IP 4.5 h before HCBT and D-cysteine 0.01 μmol each): did not impact the bioluminescent signal
decrease in dual-probe bioluminescent signal (H2O2 and caspase 8): 30%
